Laboratory results: patent publication US7781592B2, “Thione derivative, method for the preparation thereof, and pharmaceutical composition containing the same” (CJ Cheiljedang Corporation, priority 2003, dated 2010)

How the values were obtained:
COX-1 = target: T1, COX-1 (Homo sapiens, UniProt P23219); assay: Assay for the COX-1 inhibitory activity using U-937 (PGE2 inhibition); format: cell-based; settings: test compound 1 μM; U-937 human lymphoma cells; arachidonic acid substrate; PGE2 quantified; read-out: Cyclooxygenase (COX) Inhibition (%) COX-1 (1 μM)
T1 construct: host or cells: U-937 human lymphoma cells
T1 sequence (P23219 24-599): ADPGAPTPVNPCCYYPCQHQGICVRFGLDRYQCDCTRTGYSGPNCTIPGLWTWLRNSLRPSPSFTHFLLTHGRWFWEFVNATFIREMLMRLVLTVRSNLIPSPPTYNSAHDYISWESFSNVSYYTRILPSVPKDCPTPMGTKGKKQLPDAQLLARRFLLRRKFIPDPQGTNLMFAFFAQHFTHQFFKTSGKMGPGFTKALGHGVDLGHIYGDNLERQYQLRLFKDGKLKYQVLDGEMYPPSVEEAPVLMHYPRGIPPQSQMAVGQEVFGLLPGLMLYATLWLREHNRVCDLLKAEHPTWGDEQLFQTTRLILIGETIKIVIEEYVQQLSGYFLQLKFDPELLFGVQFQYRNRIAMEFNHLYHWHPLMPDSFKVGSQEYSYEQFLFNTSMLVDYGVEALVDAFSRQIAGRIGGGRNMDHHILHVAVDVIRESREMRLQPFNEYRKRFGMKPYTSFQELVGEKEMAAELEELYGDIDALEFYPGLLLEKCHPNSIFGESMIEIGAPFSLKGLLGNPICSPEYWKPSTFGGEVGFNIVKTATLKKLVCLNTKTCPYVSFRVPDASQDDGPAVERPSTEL
Experimental: The collected cells were diluted with HBSS (×1, Hank's balanced salt solution) to a concentration of 1×10^6 cells/ml. 1 ml of the dilute cell solution was placed into each well of 12-well plates. 5 μl of 1 μM solution of a test compound in DMSO and 5 μl of DMSO as a control were added to the wells. The wells were incubated in CO2 incubator at 37° C. for 15 minutes. Separately, 10 mM stock solution of arachidonic acid in ethanol was diluted ten times in ethanol to prepare 1 mM solution of arachidonic acid. Arachidonic acid acts as a substrate. 10 μl of the 1 mM solution of arachidonic acid was added to each well and incubated at CO2 incubator at 37° C. for 30 minutes. The cell solution of each well was placed in a centrifuge test tube and centrifuged at 10,000 rpm at 4° C. for 5 minutes. The concentration of PGE2 in the collected cells and the supernatant was quantified by means of a monoclonal kit (Cayman Chemicals). The percentages of PGE2 inhibition in a group of the test compound-treated cells in relation to a group of the DMSO-treated cells were calculated. Based on the calculated values, the COX-1 inhibitory activities were evaluated.
(§1) The percentages of the COX inhibition were calculated according to the following equation: % Inhibition=(concentration of PGE2 in test compound-untreated sample−concentration of PGE2 in test compound-treated sample)/(concentration of PGE2 in test compound-untreated sample)×100

COX-2 = target: T2, COX-2 (Mus musculus, UniProt Q05769); assay: Assay for the COX-2 inhibitory activity using Raw 264.7 cell line (PGE2 inhibition); format: cell-based; settings: RAW264.7; test compound 30 nM; RAW 264.7 cells; aspirin pre-treated, interferon + LPS 18 hours; PGE2 by EIA; read-out: Cyclooxygenase (COX) Inhibition (%) COX-2 (30 nM)
T2 construct: host or cells: RAW 264.7 cells, pre-treated with aspirin, then induced with interferon and LPS
T2 sequence (Q05769 18-604): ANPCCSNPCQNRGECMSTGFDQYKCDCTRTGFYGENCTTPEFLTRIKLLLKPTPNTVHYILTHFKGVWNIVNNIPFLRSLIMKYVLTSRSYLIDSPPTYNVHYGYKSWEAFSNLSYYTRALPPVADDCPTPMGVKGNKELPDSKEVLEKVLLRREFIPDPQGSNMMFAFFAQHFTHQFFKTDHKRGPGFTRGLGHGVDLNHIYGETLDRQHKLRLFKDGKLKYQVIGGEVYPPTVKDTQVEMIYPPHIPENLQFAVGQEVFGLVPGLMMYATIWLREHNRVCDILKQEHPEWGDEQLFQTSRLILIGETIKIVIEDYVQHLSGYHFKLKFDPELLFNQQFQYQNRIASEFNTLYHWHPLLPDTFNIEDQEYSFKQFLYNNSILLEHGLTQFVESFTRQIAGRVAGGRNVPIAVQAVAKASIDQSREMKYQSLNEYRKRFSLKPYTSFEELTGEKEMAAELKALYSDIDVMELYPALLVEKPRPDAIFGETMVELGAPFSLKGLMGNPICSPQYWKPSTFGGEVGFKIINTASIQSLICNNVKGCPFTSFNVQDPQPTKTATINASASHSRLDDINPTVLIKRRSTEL
Experimental: Each well was treated with 250 μM of aspirin and incubated at 37° C. for 2 hours. After the culture media were replaced with new culture media, the new culture media were treated with a test compound (30 nM) and incubated for 30 minutes. Then, each well was treated with interferon ? (100 units/ml) and lipopolysaccharide (LPS, 100 ng/ml) and incubated for 18 hours. The culture media were transferred to other test tubes. The concentration of PGE2 was quantified by means of the EIA kit (Cayman Chemicals).
as §1

Row | inhibition at 1 µM (COX-1) [%] | melting point [°C] | inhibition at 0.03 µM (COX-2) [%] | Structure (SMILES)
1 | 23.2 | 184 to 185 | 19.7 | CS(=O)(=O)c1ccc(-c2ssc(=S)c2-c2ccc(F)cc2Cl)cc1 [Example 59, 4-(2-chloro-4-fluorophenyl)-5-(4-methanesulfonylphenyl)-[1,2]dithiol-3-thione]
2 | 26.5 | 182 to 183 | 19.3 | COc1ccc(-c2c(-c3ccc(S(C)(=O)=O)cc3)ssc2=S)cc1OC [Example 60, 4-(3,4-dimethoxyphenyl)-5-(4-methanesulfonylphenyl)-[1,2]dithiol-3-thione]
3 | 23.3 | 179 to 180 | 20.1 | CS(=O)(=O)c1ccc(-c2ssc(=S)c2-c2ccccc2Br)cc1 [Example 61, 4-(2-bromophenyl)-5-(4-methanesulfonylphenyl)-[1,2]dithiol-3-thione]
4 | 26.6 | 173 to 174 | 21 | CS(=O)(=O)c1ccc(-c2ssc(=S)c2-c2ccccc2F)cc1 [Example 62, 4-(2-fluorophenyl)-5-(4-methanesulfonylphenyl)-[1,2]dithiol-3-thione]
5 | 20.3 | 148 to 149 | 21.3 | CS(=O)(=O)c1ccc(-c2ssc(=S)c2-c2ccc(F)cc2F)cc1 [Example 63, 4-(2,4-difluorophenyl)-5-(4-methanesulfonylphenyl)-[1,2]dithiol-3-thione]
6 | 21.6 | 193 to 194 | 19.8 | CS(=O)(=O)c1ccc(-c2ssc(=S)c2-c2ccc(F)c(F)c2)cc1 [Example 64, 4-(3,4-difluorophenyl)-5-(4-methanesulfonylphenyl)-[1,2]dithiol-3-thione]
7 | 27.5 | 179 to 180 | 23.3 | CC(C)Oc1ccc(-c2c(-c3ccc(S(C)(=O)=O)cc3)ssc2=S)cc1 [Example 67, 4-(4-isopropoxylphenyl)-5-(4-methanesulfonylphenyl)-[1,2]dithiol-3-thione]
8 | 25.5 | 177 to 178 | 22.7 | CCCOc1ccc(-c2c(-c3ccc(S(C)(=O)=O)cc3)ssc2=S)cc1 [Example 68, 5-(4-methanesulfonylphenyl)-4-(4-propoxyphenyl)-[1,2]dithiol-3-thione]
9 | 24.8 | 241 to 243 | 21.3 | CC(=O)Oc1ccc(-c2c(-c3ccc(S(C)(=O)=O)cc3)ssc2=S)cc1 [Example 69, Acetic acid 4-[5-(4-methanesulfonylphenyl)-3-thioxo-3H-[1,2]dithiol-4-yl]phenyl ester]
10 | 17.5 | 190 to 191 | 36 | CCOc1ccc(-c2c(-c3ccc(S(C)(=O)=O)cc3Cl)ssc2=S)cc1 [Example 70, 5-(2-chloro-4-methanesulfonylphenyl)-4-(4-ethoxyphenyl)-[1,2]dithiol-3-thione]
11 | 28.1 | 194 to 195 | 19.3 | CS(=O)(=O)c1ccc(-c2ssc(=S)c2-c2ccc(Br)cc2)c(Cl)c1 [Example 72, 4-(4-bromophenyl)-5-(2-chloro-4-methanesulfonylphenyl)-[1,2]dithiol-3-thione]
12 | 25.6 | 192 to 193 | 20.1 | COc1ccc(-c2c(-c3ccc(S(C)(=O)=O)cc3Cl)ssc2=S)cc1 [Example 73, 5-(2-chloro-4-methanesulfonylphenyl)-4-(4-methoxyphenyl)-[1,2]dithiol-3-thione]
13 | 26.5 | 140 to 142 | 19.2 | Cc1ccc(-c2c(-c3ccc(F)c(F)c3)ssc2=S)cc1 [Example 74, 5-(3,4-difluorophenyl)-4-p-toryl-[1,2]dithiol-3-thione]
14 | 26.6 | 143 to 145 | 19.6 | COc1ccc(-c2c(-c3ccc(F)c(F)c3)ssc2=S)cc1 [Example 75, 5-(3,4-difluorophenyl)-4-(4-methoxyphenyl)-[1,2]dithiol-3-thione]
15 | 21.6 | 147 to 149 | 20.3 | CC(=O)Oc1ccc(-c2c(-c3ccc(F)c(F)c3)ssc2=S)cc1 [Example 76, Acetic acid 4-[5-(3,4-difluorophenyl)-3-thioxo-3H-[1,2]dithiol-4-yl]-phenyl ester]
16 | 19.5 | 200 to 201 | 30.2 | CC(=O)Oc1ccc(-c2c(-c3ccc(S(C)(=O)=O)c(F)c3)ssc2=S)cc1 [Example 79, Acetic acid 4-[5-(3-fluoro-4-methanesulfonylphenyl)-3-thioxo-3H-[1,2]dithiol-4-yl]-phenyl ester]
17 | 24.9 | 192 to 193 | 24.6 | CS(=O)(=O)c1ccc(-c2[nH][nH]c(=S)c2-c2ccc(Cl)c(Cl)c2)cc1 [Example 81, 4-(3,4-dichlorophenyl)-5-(4-methanesulfonylphenyl)-1,2-dihydropyrazole-3-thione]
18 | 24.3 | 211 to 213 | 22.2 | CS(=O)(=O)c1ccc(-c2[nH][nH]c(=S)c2-c2ccc(Cl)cc2)cc1 [Example 82, 4-(4-chlorophenyl)-5-(4-methanesulfonylphenyl)-1,2-dihydropyrazole-3-thione]
